Measured values taken from the kinase profiling compilation of Christmann-Franck et al. (2016).

Tests used:
Assay in all cases: KINOMEscan competition binding
Conditions in all cases: compound 10.0 µM
AURKC (human) = AURKC (human) (UniProt Q9UQB9)
CAMK2G (human) = CAMK2G (human) (UniProt Q13555)
CDK17 (human) = CDK17 (human) (UniProt Q00537)
EPHB1 (human) = EPHB1 (human) (UniProt P54762)
ERBB4 (human) = ERBB4 (human) (UniProt Q15303)
FGFR1 (human) = FGFR1 (human) (UniProt P11362)
FRK (human) = FRK (human) (UniProt P42685)
Chain of FRK (human) (P42685 whole entry, looked up): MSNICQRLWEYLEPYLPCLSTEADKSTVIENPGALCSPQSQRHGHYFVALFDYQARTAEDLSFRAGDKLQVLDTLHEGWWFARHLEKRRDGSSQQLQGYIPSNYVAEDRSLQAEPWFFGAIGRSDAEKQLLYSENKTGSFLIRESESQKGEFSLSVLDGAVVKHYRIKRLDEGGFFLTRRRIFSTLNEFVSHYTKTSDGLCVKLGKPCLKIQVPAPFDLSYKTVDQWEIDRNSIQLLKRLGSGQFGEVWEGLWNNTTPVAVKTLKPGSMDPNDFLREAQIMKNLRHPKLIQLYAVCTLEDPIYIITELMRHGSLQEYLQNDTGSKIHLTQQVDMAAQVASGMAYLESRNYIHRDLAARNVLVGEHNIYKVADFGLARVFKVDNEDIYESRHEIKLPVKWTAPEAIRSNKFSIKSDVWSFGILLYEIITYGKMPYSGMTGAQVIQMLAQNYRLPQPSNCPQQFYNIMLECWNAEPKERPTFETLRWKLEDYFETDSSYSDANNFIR

HCK (human) = HCK (human) (UniProt P08631)
HIPK1 (human) = HIPK1 (human) (UniProt Q86Z02)
[1] = target: JAK1 JH2 pseudokinase (human) (UniProt P23458)
MAP3K11 (human) = MAP3K11 (human) (UniProt Q16584)
MAP3K9 (human) = MAP3K9 (human) (UniProt P80192)
MAPK11 (human) = MAPK11 (human) (UniProt Q15759)
MAPKAPK5 (human) = MAPKAPK5 (human) (UniProt Q8IW41)
MARK3 (human) = MARK3 (human) (UniProt P27448)
[2] = system: MET (human), P08581 [Y1235D]
MKNK2 (human) = MKNK2 (human) (UniProt Q9HBH9)
MLTK (human) = MLTK (human) (UniProt Q9NYL2)
MTOR (human) = MTOR (human) (UniProt P42345)
MYLK (human) = MYLK (human) (UniProt Q15746)
Chain of MYLK (human) (Q15746 whole entry, looked up): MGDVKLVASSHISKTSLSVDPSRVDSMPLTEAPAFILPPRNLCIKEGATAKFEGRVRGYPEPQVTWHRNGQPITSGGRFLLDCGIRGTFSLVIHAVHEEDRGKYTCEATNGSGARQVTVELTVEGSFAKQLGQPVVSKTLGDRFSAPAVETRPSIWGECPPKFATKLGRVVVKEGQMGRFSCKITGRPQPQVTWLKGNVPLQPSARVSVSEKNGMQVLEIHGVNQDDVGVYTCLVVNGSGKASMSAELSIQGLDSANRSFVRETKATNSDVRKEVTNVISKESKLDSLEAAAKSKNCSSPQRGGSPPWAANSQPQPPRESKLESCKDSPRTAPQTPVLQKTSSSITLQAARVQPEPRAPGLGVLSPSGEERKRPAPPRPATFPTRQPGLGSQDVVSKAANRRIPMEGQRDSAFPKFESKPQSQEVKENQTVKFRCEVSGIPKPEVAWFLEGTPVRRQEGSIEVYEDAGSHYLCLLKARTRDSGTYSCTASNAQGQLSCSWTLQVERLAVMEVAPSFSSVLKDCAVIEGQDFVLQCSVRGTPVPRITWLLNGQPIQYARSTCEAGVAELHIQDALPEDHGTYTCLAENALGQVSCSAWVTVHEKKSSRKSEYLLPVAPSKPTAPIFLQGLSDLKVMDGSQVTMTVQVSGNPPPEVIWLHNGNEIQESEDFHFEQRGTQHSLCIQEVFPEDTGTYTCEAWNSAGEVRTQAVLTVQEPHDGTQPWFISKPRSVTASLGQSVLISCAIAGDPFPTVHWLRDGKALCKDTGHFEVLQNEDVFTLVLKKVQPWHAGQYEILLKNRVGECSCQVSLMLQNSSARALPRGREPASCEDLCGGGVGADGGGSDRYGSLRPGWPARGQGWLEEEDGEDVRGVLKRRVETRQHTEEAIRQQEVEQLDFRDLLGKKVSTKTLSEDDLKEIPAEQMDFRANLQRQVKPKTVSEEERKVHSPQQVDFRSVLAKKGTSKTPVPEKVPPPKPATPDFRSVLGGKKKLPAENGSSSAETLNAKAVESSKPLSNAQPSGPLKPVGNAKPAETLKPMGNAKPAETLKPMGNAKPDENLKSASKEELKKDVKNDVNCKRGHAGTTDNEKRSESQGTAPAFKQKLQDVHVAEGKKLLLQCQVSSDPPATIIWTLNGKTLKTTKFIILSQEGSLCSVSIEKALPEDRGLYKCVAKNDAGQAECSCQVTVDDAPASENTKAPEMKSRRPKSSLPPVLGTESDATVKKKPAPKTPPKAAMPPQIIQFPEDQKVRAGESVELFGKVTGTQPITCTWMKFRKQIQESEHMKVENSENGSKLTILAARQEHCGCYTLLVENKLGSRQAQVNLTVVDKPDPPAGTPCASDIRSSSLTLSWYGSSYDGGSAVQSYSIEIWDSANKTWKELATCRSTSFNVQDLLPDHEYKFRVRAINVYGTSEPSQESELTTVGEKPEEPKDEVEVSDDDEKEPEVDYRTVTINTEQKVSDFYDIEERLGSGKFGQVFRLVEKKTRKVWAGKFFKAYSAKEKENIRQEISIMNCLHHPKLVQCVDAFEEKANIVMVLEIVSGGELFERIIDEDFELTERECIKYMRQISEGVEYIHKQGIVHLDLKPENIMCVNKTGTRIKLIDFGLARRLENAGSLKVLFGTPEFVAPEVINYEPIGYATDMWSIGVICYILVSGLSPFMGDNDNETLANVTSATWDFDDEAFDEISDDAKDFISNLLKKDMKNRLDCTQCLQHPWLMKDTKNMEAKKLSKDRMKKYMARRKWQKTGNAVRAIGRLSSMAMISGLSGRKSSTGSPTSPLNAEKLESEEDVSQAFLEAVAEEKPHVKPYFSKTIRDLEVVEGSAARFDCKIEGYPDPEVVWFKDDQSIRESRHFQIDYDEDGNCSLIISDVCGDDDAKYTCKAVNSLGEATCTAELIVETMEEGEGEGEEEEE

MYLK4 (human) = MYLK4 (human) (UniProt Q86YV6)
NUAK1 (human) = NUAK1 (human) (UniProt O60285)
PAK7 (human) = PAK7 (human) (UniProt Q9P286)
PHKG2 (human) = PHKG2 (human) (UniProt P15735)
PIK3CD (human) = PIK3CD (human) (UniProt O00329)
PRKX (human) = PRKX (human) (UniProt P51817)
RAF1 (human) = RAF1 (human) (UniProt P04049)
RIPK1 (human) = RIPK1 (human) (UniProt Q13546)
ROS1 (human) = ROS1 (human) (UniProt P08922)
SGK3 (human) = SGK3 (human) (UniProt Q96BR1)
SLK (human) = SLK (human) (UniProt Q9H2G2)
STK3 (human) = STK3 (human) (UniProt Q13188)
STK35 (human) = STK35 (human) (UniProt Q8TDR2)
STK36 (human) = STK36 (human) (UniProt Q9NRP7)
TAOK1 (human) = TAOK1 (human) (UniProt Q7L7X3)
TAOK2 (human) = TAOK2 (human) (UniProt Q9UL54)
TIE1 (human) = TIE1 (human) (UniProt P35590)
TNIK (human) = TNIK (human) (UniProt Q9UKE5)
Chain of TNIK (human) (Q9UKE5 whole entry, looked up): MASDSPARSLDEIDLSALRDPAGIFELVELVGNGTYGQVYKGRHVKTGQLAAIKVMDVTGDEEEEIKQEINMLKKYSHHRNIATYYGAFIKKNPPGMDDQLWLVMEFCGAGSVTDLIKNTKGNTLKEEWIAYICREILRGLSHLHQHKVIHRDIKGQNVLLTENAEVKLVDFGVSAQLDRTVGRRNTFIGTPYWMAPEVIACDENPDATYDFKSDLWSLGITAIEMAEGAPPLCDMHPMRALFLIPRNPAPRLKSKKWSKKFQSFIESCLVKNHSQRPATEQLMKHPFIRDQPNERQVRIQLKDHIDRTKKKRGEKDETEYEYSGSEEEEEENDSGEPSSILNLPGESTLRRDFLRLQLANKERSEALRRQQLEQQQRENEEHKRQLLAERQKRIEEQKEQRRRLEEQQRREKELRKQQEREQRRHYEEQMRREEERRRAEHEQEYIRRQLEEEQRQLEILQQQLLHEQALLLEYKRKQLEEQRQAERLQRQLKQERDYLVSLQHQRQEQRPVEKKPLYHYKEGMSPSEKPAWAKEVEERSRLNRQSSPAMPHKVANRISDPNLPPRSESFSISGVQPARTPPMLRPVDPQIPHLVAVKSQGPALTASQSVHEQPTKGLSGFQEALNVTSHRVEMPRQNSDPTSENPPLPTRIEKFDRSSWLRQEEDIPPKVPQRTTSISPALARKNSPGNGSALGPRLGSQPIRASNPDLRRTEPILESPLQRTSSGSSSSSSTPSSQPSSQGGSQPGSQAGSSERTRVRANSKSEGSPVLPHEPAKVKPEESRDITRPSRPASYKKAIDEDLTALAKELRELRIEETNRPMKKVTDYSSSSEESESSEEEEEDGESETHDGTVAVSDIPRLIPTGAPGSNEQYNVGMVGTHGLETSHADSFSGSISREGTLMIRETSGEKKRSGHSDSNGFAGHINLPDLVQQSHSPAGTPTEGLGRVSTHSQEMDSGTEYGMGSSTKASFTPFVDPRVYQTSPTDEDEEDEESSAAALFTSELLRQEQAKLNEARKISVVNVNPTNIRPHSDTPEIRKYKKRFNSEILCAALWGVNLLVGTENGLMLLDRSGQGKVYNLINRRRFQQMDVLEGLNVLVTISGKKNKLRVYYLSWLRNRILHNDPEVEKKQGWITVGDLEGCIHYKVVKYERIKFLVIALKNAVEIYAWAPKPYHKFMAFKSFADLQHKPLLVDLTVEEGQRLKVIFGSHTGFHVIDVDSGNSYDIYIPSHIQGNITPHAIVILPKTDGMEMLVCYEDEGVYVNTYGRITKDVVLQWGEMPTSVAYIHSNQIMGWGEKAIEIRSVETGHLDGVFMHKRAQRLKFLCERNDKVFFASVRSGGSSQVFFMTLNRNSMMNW

TNNI3K (human) = TNNI3K (human) (UniProt Q59H18)
TRPM6 (human) = TRPM6 (human) (UniProt Q9BX84)

Chain of CDK17 (human) (Q00537 whole entry, looked up): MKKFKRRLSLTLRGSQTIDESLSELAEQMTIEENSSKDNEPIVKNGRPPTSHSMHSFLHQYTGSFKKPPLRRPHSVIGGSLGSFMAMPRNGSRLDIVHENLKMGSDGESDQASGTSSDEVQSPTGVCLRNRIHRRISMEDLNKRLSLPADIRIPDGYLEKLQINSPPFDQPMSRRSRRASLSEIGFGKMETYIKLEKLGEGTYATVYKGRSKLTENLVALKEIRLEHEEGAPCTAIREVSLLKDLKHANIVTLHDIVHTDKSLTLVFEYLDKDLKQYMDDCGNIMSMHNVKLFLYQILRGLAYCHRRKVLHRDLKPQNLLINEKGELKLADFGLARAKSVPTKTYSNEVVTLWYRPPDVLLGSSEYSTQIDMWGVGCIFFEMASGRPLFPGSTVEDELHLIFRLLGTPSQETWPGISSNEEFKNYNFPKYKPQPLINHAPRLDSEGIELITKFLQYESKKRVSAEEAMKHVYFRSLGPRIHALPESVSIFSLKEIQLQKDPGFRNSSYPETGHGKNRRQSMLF
Chain of CAMK2G (human) (Q13555 whole entry, looked up): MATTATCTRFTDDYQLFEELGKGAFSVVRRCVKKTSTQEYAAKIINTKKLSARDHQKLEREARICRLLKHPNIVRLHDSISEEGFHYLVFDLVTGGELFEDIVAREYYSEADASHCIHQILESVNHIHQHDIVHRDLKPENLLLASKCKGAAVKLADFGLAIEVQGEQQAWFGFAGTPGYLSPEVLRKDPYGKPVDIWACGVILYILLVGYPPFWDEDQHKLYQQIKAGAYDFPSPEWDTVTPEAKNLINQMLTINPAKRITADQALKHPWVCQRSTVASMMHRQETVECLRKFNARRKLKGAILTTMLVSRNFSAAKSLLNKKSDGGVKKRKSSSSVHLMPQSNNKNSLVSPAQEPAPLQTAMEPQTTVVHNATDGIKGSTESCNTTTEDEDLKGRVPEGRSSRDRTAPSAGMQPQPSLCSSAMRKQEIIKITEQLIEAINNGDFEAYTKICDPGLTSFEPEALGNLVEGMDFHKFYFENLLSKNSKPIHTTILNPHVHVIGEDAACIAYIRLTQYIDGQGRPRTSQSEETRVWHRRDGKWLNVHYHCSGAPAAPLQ

**Q.** With CCN1CCN(C(=O)Cc2ccc(Nc3ncc(F)c(Nc4ccc(C(=O)Nc5ccccc5Cl)cc4)n3)cc2)CC1 as the compound, how does the kinase still bound, per cent of control (AURKC (human)) read?
**A.** Its kinase still bound, per cent of control is 1.2%.

**Q.** And the kinase still bound, per cent of control (CAMK2G (human))?
**A.** The kinase still bound, per cent of control was 55%.

**Q.** And the kinase still bound, per cent of control (CDK17 (human))?
**A.** The kinase still bound, per cent of control was 35%.

**Q.** And the kinase still bound, per cent of control (EPHB1 (human))?
**A.** Its kinase still bound, per cent of control is 66%.

**Q.** And the kinase still bound, per cent of control (ERBB4 (human))?
**A.** Its kinase still bound, per cent of control is 53%.

**Q.** What about the kinase still bound, per cent of control (FGFR1 (human)) of the same compound?
**A.** Its kinase still bound, per cent of control is 14%.

**Q.** What about the kinase still bound, per cent of control (FRK (human)) of the same compound?
**A.** The kinase still bound, per cent of control was 28%.

**Q.** What about the kinase still bound, per cent of control (HCK (human)) of the same compound?
**A.** Its kinase still bound, per cent of control is 84%.

**Q.** And the kinase still bound, per cent of control (HIPK1 (human))?
**A.** Its kinase still bound, per cent of control is 3.2%.

**Q.** And the kinase still bound, per cent of control [1]?
**A.** Its kinase still bound, per cent of control is 3%.

**Q.** And the kinase still bound, per cent of control (MAP3K11 (human))?
**A.** Its kinase still bound, per cent of control is 4.6%.

**Q.** And the kinase still bound, per cent of control (MAP3K9 (human))?
**A.** Its kinase still bound, per cent of control is 17%.

**Q.** And the kinase still bound, per cent of control (MAPK11 (human))?
**A.** Its kinase still bound, per cent of control is 81%.

**Q.** What about the kinase still bound, per cent of control (MAPKAPK5 (human)) of the same compound?
**A.** The kinase still bound, per cent of control was 100%.

**Q.** What about the kinase still bound, per cent of control (MARK3 (human)) of the same compound?
**A.** Its kinase still bound, per cent of control is 80%.

**Q.** What about the kinase still bound, per cent of control [2] of the same compound?
**A.** Its kinase still bound, per cent of control is 23%.

**Q.** And the kinase still bound, per cent of control (MKNK2 (human))?
**A.** Its kinase still bound, per cent of control is 5.6%.

**Q.** What about the kinase still bound, per cent of control (MLTK (human)) of the same compound?
**A.** The kinase still bound, per cent of control was 2.9%.

**Q.** What about the kinase still bound, per cent of control (MTOR (human)) of the same compound?
**A.** The kinase still bound, per cent of control was 20%.

**Q.** And the kinase still bound, per cent of control (MYLK (human))?
**A.** Its kinase still bound, per cent of control is 57%.

**Q.** And the kinase still bound, per cent of control (MYLK4 (human))?
**A.** The kinase still bound, per cent of control was 11%.

**Q.** And the kinase still bound, per cent of control (NUAK1 (human))?
**A.** Its kinase still bound, per cent of control is 18%.

**Q.** And the kinase still bound, per cent of control (PAK7 (human))?
**A.** Its kinase still bound, per cent of control is 56%.

**Q.** What about the kinase still bound, per cent of control (PHKG2 (human)) of the same compound?
**A.** The kinase still bound, per cent of control was 42%.

**Q.** What about the kinase still bound, per cent of control (PIK3CD (human)) of the same compound?
**A.** Its kinase still bound, per cent of control is 41%.

**Q.** And the kinase still bound, per cent of control (PRKX (human))?
**A.** The kinase still bound, per cent of control was 76%.

**Q.** And the kinase still bound, per cent of control (RAF1 (human))?
**A.** The kinase still bound, per cent of control was 81%.

**Q.** And the kinase still bound, per cent of control (RIPK1 (human))?
**A.** The kinase still bound, per cent of control was 96%.

**Q.** What about the kinase still bound, per cent of control (ROS1 (human)) of the same compound?
**A.** Its kinase still bound, per cent of control is 34%.

**Q.** What about the kinase still bound, per cent of control (SGK3 (human)) of the same compound?
**A.** The kinase still bound, per cent of control was 100%.

**Q.** And the kinase still bound, per cent of control (SLK (human))?
**A.** Its kinase still bound, per cent of control is 0.2%.

**Q.** What about the kinase still bound, per cent of control (STK3 (human)) of the same compound?
**A.** The kinase still bound, per cent of control was 100%.

**Q.** What about the kinase still bound, per cent of control (STK35 (human)) of the same compound?
**A.** Its kinase still bound, per cent of control is 91%.

**Q.** And the kinase still bound, per cent of control (STK36 (human))?
**A.** Its kinase still bound, per cent of control is 2.1%.

**Q.** What about the kinase still bound, per cent of control (TAOK1 (human)) of the same compound?
**A.** The kinase still bound, per cent of control was 62%.

**Q.** And the kinase still bound, per cent of control (TAOK2 (human))?
**A.** Its kinase still bound, per cent of control is 56%.

**Q.** What about the kinase still bound, per cent of control (TIE1 (human)) of the same compound?
**A.** The kinase still bound, per cent of control was 10%.

**Q.** And the kinase still bound, per cent of control (TNIK (human))?
**A.** The kinase still bound, per cent of control was 45%.

**Q.** And the kinase still bound, per cent of control (TNNI3K (human))?
**A.** Its kinase still bound, per cent of control is 24%.

**Q.** And the kinase still bound, per cent of control (TRPM6 (human))?
**A.** Its kinase still bound, per cent of control is 96%.
